Results reported in US10578622B2, “Sensors for detecting citrate, and method of detecting citrate using the same” (KOREA INSTITUTE OF SCIENCE AND TECHNOLOGY, priority 2017, dated 2020).

Key:
PC3 cells = experiment: Fluorescence expression of the citrate detection sensor in living PC3 cells; assay type: cell-based; details: ARBD 2 μM, cultured 30 minutes
Description: The citrate detection sensor was evaluated in terms of its probe capability in living cells (PC3). […] Particularly, after the citrate sensor including ARBD (2 μM) was cultured for 30 minutes, the image in PC3 cells was observed.
FIG. 9A to FIG. 9C show the fluorescence expressed generally when ARBD is introduced to prostate cancer cells. The image (FIG. 9C) of the expressed fluorescence (FIG. 9A) overlapped with the photo image (FIG. 9B) of the cell lines is shown between them. Then, green fluorescence expressed when adding citrate to the detection sensor inserted to the cell lines was observed. The image (FIG. 9D) after adding citrate, the photo image (FIG. 9E) thereof and their overlapped image (FIG. 9F) are shown in FIG. 9D to FIG. 9F.

[1] = Selectivity and interference of the citrate detection sensor
Description: The citrate detection sensor was used to test the selectivity and interference capability to the related similar species for the detection of the other biological carboxylate and citrate. For this test, 1 μM of citrate and 0.5 mM of the other ions were added ((1) sensor, (2) citrate, (3) fumarate, (4) benzoate, (5) glutamate, (6) succinate, (7) malonate, (8) oxalate, (9) acetate, (10) phosphate, (11) sulfite, and (12) sulfate).
Referring to FIG. 8C, it can be seen that even when the other ionic substances have a concentration at least 500 times higher than the concentration of citrate, the citrate detection sensor is reactive selectively with citrate without any interference under high sensitivity. In addition, since it is well known that boronate is a diol sensor, selectivity was also determined for the other materials having a diol moiety, such as hydrogen peroxide (H2O2), glucose, fructose, sucrose, dopamine species, or the like. […] Although the two analytes undergo a reaction in response to the fluorescence intensity, it can be seen that citrate emits green fluorescence and H2O2 emits blue fluorescence. Thus, it can be seen that since only citrate emits green fluorescence in a biological sample at a concentration of ‘μM’ scale, it is possible to detect citrate with ease by the naked eyes through the citrate detection sensor.

[2] = Fluorescence intensity as a function of time and pH in the presence of citrate; assay type: physicochemical
Description: Meanwhile, FIG. 6A to FIG. 6C show a graph illustrating a change in fluorescence intensity of the citrate detection sensor as a function of time in the presence of different concentrations of citrate (0-0.9 μM), a graph illustrating fluorescence emission intensity of ARBD and citrate at different pH values and a fluorescence image thereof, respectively.
When optimizing the determination condition in FIG. 6A, it can be seen that the maximum value of fluorescence intensity is accomplished within about 15 minutes. […] Thus, it can be seen that when citrate is introduced to the citrate detection sensor, fluorescence enhancement may be varied with pH.

[3] = High-sensitivity detection of citrate (UV-Vis absorption and fluorescence titration); details: pH 7.4, 10 mM HEPES (2 vol % DMSO)
Description: The initial citrate tracking ability of the citrate detection sensor including ARBD was evaluated by using UV-Vis absorption spectrometry using ARBD at pH 7.4 in the presence of 10 mM of HEPES buffer solution (2 vol % DMSO). Referring to FIG. 7A to FIG. 7C, it is possible to determine a change in fluorescence spectrum of ARBD when adding citrate at a concentration increasing linearly. […] The absorption intensity at 346 nm is decreased whenever citrate is added and a new peak position appears at 400 nm. In addition, as shown in FIG. 7A to FIG. 7C, it can be seen that an increase in concentration of citrate affects both the fluorescence intensity and the fluorescence wavelength. Further, it can be seen that when the concentration of citrate is increased from 0 to 800 nM for the citrate detection sensor including 2 μM of ARBD at pH 7.4 in the presence of 10 mM of HEPES buffer solution (2 vol % DMSO), the maximum fluorescence intensity is increased linearly to 548 nm. It can be also seen that when the concentration of citrate is increased to 950 nM, the peak at 548 nm is increased linearly while causing no change in wavelength.

[4] = Photophysical properties of the citrate detection sensor in the presence and absence of citrate; assay type: physicochemical
Description: Meanwhile, referring to FIG. 5, it can be seen that the citrate detection sensor not subjected to reaction with citrate expresses (blue) fluorescence while emitting weak fluorescence at 346 nm and 458 nm. On the contrary, when citrate is added to the citrate detection sensor including 2 μM of ARBD in the presence of 10 mM of 4-(2-hydroxyethyl)-1-piperazineethane sulfonic acid (HEPES) buffer (2 vol % DMSO) at pH 7.4, it can be seen that strong fluorescence appears at 548 nm together with a dramatic color change from blue to green. […] However, such a change in fluorescence is differentiated preferentially by visualization.

[5] = Job plot and reaction kinetics of the sensor including ARBD with citrate; details: reaction with citrate; plot of ln(Fmax−F)/Fmax vs time
Excerpt: To understand the bonding behavior in the reaction between the citrate detection sensor including ARBD and citrate, the reaction was investigated by using the Job plot.
It can be seen from FIG. 3 that the maximum absorption intensity appears at a molar fraction of 0.5. Thus, it can be seen that a 1:1 complex is formed during the reaction of the citrate detection sensor with citrate. In this case, the reaction kinetics may be expressed by −kt=ln(Fmax−F)/Fmax (wherein k=rate constant, and ‘F’ and ‘Fmax’ represent the fluorescence intensity at time ‘t’). In addition, the maximum intensity reaction value accomplished after the completion of the reaction was calculated by using the plot of ‘ln(Fmax−F)/Fmax vs time’ as shown in FIG. 4.

pH of highest and stable fluorescence intensity ([2]; ARBD and citrate at different pH values): 7-8 pH
stability of fluorescence intensity after reaction with citrate ([2]; citrate 0-0.9 μM, whole concentration range): maintained constantly to 60 minutes
new absorption peak position on addition of citrate ([3]; citrate 0 to 12 μM): 400 nm
absorption peak ([3]; initial stage, no citrate): 346 nm
Fluorescence quantum yield [4]: 0.18
Maximum absorption wavelength (λabs) [4]: 352
Maximum emission wavelength (λemiss) [4]: 458
fluorescence emission wavelength ([4]; citrate added, 2 μM ARBD, 10 mM HEPES buffer (2 vol % DMSO), pH 7.4, strong fluorescence, color change blue to green): 548 nm
fluorescence emission wavelength ([4]; sensor not subjected to reaction with citrate, weak (blue) fluorescence): 458 nm
SMILES: CC1(C)OB(c2ccc(-c3nc(-c4ccc(-c5nc(-c6ccccc6)c(-c6ccccc6)[nH]5)cc4)no3)cc2)OC1(C)C [ARBD, 5-(4-(4,4,5,5-tetramethyl-1,3,2-dioxaborolan-2-yl)phenyl)-3-(4-(4,5-diphenyl-1H-imidazol-2-yl)phenyl)-1,2,4-oxadiazole]
fluorescence in cells after adding citrate (PC3 cells): reacts with citrate to express a green color
selectivity: fluorescence enhancement by citrate versus other ions ([1]; 1 μM citrate, 0.5 mM fumarate, benzoate, glutamate, succinate, malonate, oxalate, acetate, phosphate, sulfite, sulfate): only citrate can induce fluorescence enhancement
selectivity versus materials having a diol moiety ([1]; H2O2, glucose, fructose, sucrose, dopamine species, citrate emits green, H2O2 blue fluorescence): reacts only with citrate and hydrogen peroxide
interference of other ionic compounds with detection of citrate ([1]; other species at least 500 times higher concentration than citrate): no effect upon the detection of citrate
time to maximum value of fluorescence intensity ([2]; citrate 0-0.9 μM): ≤ 15 min
detection limit for citrate ([3]; S/N=3, 2 μM ARBD): 10 nM
k (reaction rate constant) [5]: 0.148 min⁻¹
